Experimental data published in paper PMC11726634, “Probing the Histamine H1 Receptor Binding Site to Explore Ligand Binding Kinetics” (Journal of Medicinal Chemistry, 2024).
Structures can show the parent of a compound that is named as a salt. Where two headings read alike, the source gives them in different places.

Experiments:
human H1R [1] = target: T1, human H1R (Homo sapiens, UniProt P35367); test: [3H]-mepyramine competition binding (radioligand displacement, 4 h) on HEK293T cell homogenates; conditions: for pKi: [3H]mepyramine displacement curves after 4 h incubation, HEK293T cell homogenate expressing H1R, 25 °C, mean and SEM, N ≥ 3
T1 construct: expressed in transfected cells; host or cells: HEK293T cells, transient transfection with pcDEF3, used as cell homogenate
T1 sequence (P35367 whole entry): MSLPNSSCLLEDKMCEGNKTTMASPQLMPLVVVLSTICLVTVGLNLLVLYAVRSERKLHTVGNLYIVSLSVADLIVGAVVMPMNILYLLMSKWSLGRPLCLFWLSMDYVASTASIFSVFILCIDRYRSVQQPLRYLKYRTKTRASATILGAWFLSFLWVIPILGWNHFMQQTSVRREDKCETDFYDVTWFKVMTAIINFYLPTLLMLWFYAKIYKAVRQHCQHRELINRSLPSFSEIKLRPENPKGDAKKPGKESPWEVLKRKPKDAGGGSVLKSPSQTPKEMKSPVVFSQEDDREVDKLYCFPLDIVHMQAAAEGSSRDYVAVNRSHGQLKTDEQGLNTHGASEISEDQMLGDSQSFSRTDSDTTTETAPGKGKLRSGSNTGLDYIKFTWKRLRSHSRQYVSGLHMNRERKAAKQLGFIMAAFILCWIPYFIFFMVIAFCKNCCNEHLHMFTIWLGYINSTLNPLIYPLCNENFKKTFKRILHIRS
Method: Protein content of membrane homogenates was determined using a BCA protein assay. […] Membrane preparation, termination of the binding reaction and quantifying radioactivity as described here, were performed for all binding experiments.Total binding and nonspecific binding (i.e., in the presence of mianserin) was analyzed by nonlinear regression using eqs 1 (nonspecific binding) and 2 (total binding).
These values were converted to Ki values using the Cheng–Prusoff equation.[24]

human H1R [2] = target: T1, human H1R; test: Competition association binding with [3H]-mepyramine (Motulsky and Mahan model); conditions: for KE (kinetic efficiency = RT/N heavy atoms): RT divided by number of heavy atoms; for pKD,calc: calculated from kon and koff of individual experiments
Method: Binding in the presence of mianserin was assumed to be the baseline (i.e., t = 0 min). Binding over time was baseline corrected and then analyzed by nonlinear regression using the Motulsky and Mahan model[25] (eq 5). This model assumes that both the radioligand and the unlabeled ligand bind competitively to the same binding site according to a one-step binding mechanism.

[3] = competitive binding of [3H]mepyramine over time, unlabeled ligand at ±10 times Ki, 25 °C, mean and SEM, N ≥ 3
[4] = competitive binding of [3H]mepyramine over time, unlabeled ligand at ±10 times Ki, 25 °C, mean and SEM, N ≥ 3, read-out: koff (converted)
[5] = compared with fragment 1 (RT 2.0 min)

pKi (human H1R [1])	KE (kinetic efficiency = RT/N heavy atoms) (human H1R [2])	pKD,calc (human H1R [2]; mean and SEM, N ≥ 3)	koff (human H1R [2]; [3])	kon (human H1R [2]; [3])	koff (human H1R [2]; [4])	kon (human H1R [2]; read-out: kon (converted))	increase in RT relative to 1 (human H1R [2]; [5])	lower binding affinity relative to 1 (human H1R [1]; compared with 1)	increase in RT compared to first-generation analog (human H1R [2])	Compound	increase in RT relative to 1 (human H1R [2])	decrease of association rate constant (kon) relative to 1 (human H1R [2]; compared with 1)	koff (human H1R [2]; read-out: koff (converted))
7.4 ± 0.1	0.48	7.4 ± 0.0	0.00138 ± 6.7e-05 s⁻¹	2.08 ± 0.10 10^6· M^−1·min^−1						2-(3-Benzyl-2-((1-methylpiperidin-4-yl)oxy)phenyl)acetic Acid [3b]			
<5	0.05	4.8 ± 0.1			0.0167 s⁻¹	1000 M⁻¹ s⁻¹				CN1CCC(Oc2cc(C(=O)O)ccc2Cc2ccccc2)CC1 [2a, 4-Benzyl-3-((1-methylpiperidin-4-yl)oxy)benzoic Acid]			
6.9 ± 0.1	0.24	6.8 ± 0.2			0.00283 s⁻¹	21700 M⁻¹ s⁻¹				CN1CCC(Oc2cc(CC(=O)O)ccc2Cc2ccccc2)CC1 [2b, 2-(4-Benzyl-3-((1-methylpiperidin-4-yl)oxy)phenyl)acetic Acid]			
6.5 ± 0.1	0.69	7.0 ± 0.0			0.000917 s⁻¹	10300 M⁻¹ s⁻¹	9 fold			CN1CCC(Oc2cc(/C=C/C(=O)O)ccc2Cc2ccccc2)CC1 [2c, (E)-3-(4-Benzyl-3-((1-methylpiperidin-4-yl)oxy)phenyl)acrylic Acid]			
6.2 ± 0.1	0.18	6.3 ± 0.0			0.004 s⁻¹	8330 M⁻¹ s⁻¹				CN1CCC(Oc2c(Cc3ccccc3)cccc2C(=O)O)CC1 [3a, 3-Benzyl-2-((1-methylpiperidin-4-yl)oxy)benzoic Acid]			
6.6 ± 0.1	0.12	6.7 ± 0.0				26700 M⁻¹ s⁻¹				CN1CCC(Oc2c(/C=C/C(=O)O)cccc2Cc2ccccc2)CC1 [3c, (E)-3-(3-Benzyl-2-((1-methylpiperidin-4-yl)oxy)phenyl)acrylic Acid]			
7.4 ± 0.0	0.06	7.6 ± 0.1			0.0122 s⁻¹	450000 M⁻¹ s⁻¹		10 fold		CN1CCC(Oc2c(CO)cccc2Cc2ccccc2)CC1 [3d, (3-Benzyl-2-((1-methylpiperidin-4-yl)oxy)phenyl)methanol]			
7.5 ± 0.1	0.36	7.4 ± 0.0			0.00183 s⁻¹	48300 M⁻¹ s⁻¹				O=C(O)CCN1CCC(Oc2ccccc2Cc2ccccc2)CC1 [4a, 3-(4-(2-Benzylphenoxy)piperidin-1-yl)propanoic Acid Hydrochloride]			
7.6 ± 0.1	0.38	7.5 ± 0.0			0.00167 s⁻¹	48300 M⁻¹ s⁻¹				O=C(O)CCCN1CCC(Oc2ccccc2Cc2ccccc2)CC1 [4b, 4-(4-(2-Benzylphenoxy)piperidin-1-yl)butanoic Acid Hydrochloride]			
7.8 ± 0.1	0.85	7.9 ± 0.1			0.00075 s⁻¹	53300 M⁻¹ s⁻¹	> 10 fold			O=C(O)CCCCN1CCC(Oc2ccccc2Cc2ccccc2)CC1 [4c, 5-(4-(2-Benzylphenoxy)piperidin-1-yl)pentanoic Acid Hydrochloride]			
7.8 ± 0.0	0.61	7.7 ± 0.1			0.001 s⁻¹	66700 M⁻¹ s⁻¹				O=C(O)CCCCCN1CCC(Oc2ccccc2Cc2ccccc2)CC1 [4d, 6-(4-(2-Benzylphenoxy)piperidin-1-yl)hexanoic Acid Hydrochloride]			
7.7 ± 0.2	0.45	7.5 ± 0.0			0.00127 s⁻¹	41700 M⁻¹ s⁻¹				O=C(O)CCCCCCN1CCC(Oc2ccccc2Cc2ccccc2)CC1 [4e, 7-(4-(2-Benzylphenoxy)piperidin-1-yl)heptanoic Acid Hydrochloride]			
7.6 ± 0.1	0.50	7.5 ± 0.0			0.00115 s⁻¹	39500 M⁻¹ s⁻¹				O=C(O)CCCCCCCN1CCC(Oc2ccccc2Cc2ccccc2)CC1 [4f, 8-(4-(2-Benzylphenoxy)piperidin-1-yl)octanoic Acid Hydrochloride]			
									7 fold	CN(C)CC/C=C1/c2ccccc2COc2ccc(CC(=O)O)cc21 [Olopatadine, olopatadine, reference compound]			
8.1 ± 0.1	1.66	8.2 ± 0.02			0.00035 s⁻¹	61700 M⁻¹ s⁻¹				c1ccc(Cc2ccccc2OC2CCN(CCCCc3nnn[nH]3)CC2)cc1 [compound 27, 1-(4-(1H-Tetrazol-5-yl)butyl)-4-(2-benzylphenoxy)piperidine]			

Compound	pKi (human H1R [1])	KE (kinetic efficiency = RT/N heavy atoms) (human H1R [2])	pKD,calc (human H1R [2]; mean and SEM, N ≥ 3)	koff (human H1R [2]; [3])	kon (human H1R [2]; [3])	koff (human H1R [2]; [4])	kon (human H1R [2]; read-out: kon (converted))	increase in RT relative to 1 (human H1R [2]; [5])	lower binding affinity relative to 1 (human H1R [1]; compared with 1)	increase in RT compared to first-generation analog (human H1R [2])	increase in RT relative to 1 (human H1R [2])	decrease of association rate constant (kon) relative to 1 (human H1R [2]; compared with 1)	koff (human H1R [2]; read-out: koff (converted))
CN1CCC(Oc2cc(CO)ccc2Cc2ccccc2)CC1 [2d, (4-Benzyl-3-((1-methylpiperidin-4-yl)oxy)phenyl)methanol Hemifumarate]	8.4 ± 0.1	0.17	8.6 ± 0.0				1.63e+06 M⁻¹ s⁻¹				2 fold	2 fold	0.00417 s⁻¹
COc1ccc(Cc2ccccc2)c(OC2CCN(C)CC2)c1 [2e, 4-(2-Benzyl-5-methoxyphenoxy)-1-methylpiperidine Fumarate]	7.8 ± 0.1	0.09	8.1 ± 0.1				1e+06 M⁻¹ s⁻¹						0.00833 s⁻¹
